Tests used:
[1] = human gut metagenome, 24 h, 2 µM
[2] = human gut metagenome, 24 h, 2 µM; remark: listed apart in the source
[3] = human gut metagenome, 24 h, 2 µM; remark: listed apart in the source
[4] = The drug is tested on Z-003 corresponding to pig gut metagenome with ENA study accession number: PRJEB37062 and ENA sample accession number: ERS12561803 for biotransformation under anaerobic condition. The drug concentrations were measured over 9 timepoints collected between 0 and 24 hours of incubation by liquid-chromatography-coupled mass spectrometry (LC–MS); settings: 2 µM
[5] = The drug is tested on WLS-350 corresponding to human gut metagenome with ENA study accession number: PRJEB37062 and ENA sample accession number: ERS12561789 for biotransformation under anaerobic condition. The drug concentrations were measured over 9 timepoints collected between 0 and 24 hours of incubation by liquid-chromatography-coupled mass spectrometry (LC–MS); settings: 2 µM
[6] = human gut metagenome, 24 h, 2 µM; remark: listed apart in the source
[7] = The drug is tested on Z-021 corresponding to metagenome with ENA study accession number: PRJEB37062 and ENA sample accession number: ERS12561820 for biotransformation under anaerobic condition. The drug concentrations were measured over 9 timepoints collected between 0 and 24 hours of incubation by liquid-chromatography-coupled mass spectrometry (LC–MS); settings: 2 µM
[8] = The drug is tested on WLS-039 corresponding to human gut metagenome with ENA study accession number: PRJEB37062 and ENA sample accession number: ERS12561746 for biotransformation under anaerobic condition. The drug concentrations were measured over 9 timepoints collected between 0 and 24 hours of incubation by liquid-chromatography-coupled mass spectrometry (LC–MS); settings: 2 µM
[9] = human gut metagenome, 24 h, 2 µM; remark: listed apart in the source
[10] = The drug is tested on WLS-077 corresponding to human gut metagenome with ENA study accession number: PRJEB37062 and ENA sample accession number: ERS12561750 for biotransformation under anaerobic condition. The drug concentrations were measured over 9 timepoints collected between 0 and 24 hours of incubation by liquid-chromatography-coupled mass spectrometry (LC–MS); settings: 2 µM
[11] = The drug is tested on WLS-069 corresponding to human gut metagenome with ENA study accession number: PRJEB37062 and ENA sample accession number: ERS12561748 for biotransformation under anaerobic condition. The drug concentrations were measured over 9 timepoints collected between 0 and 24 hours of incubation by liquid-chromatography-coupled mass spectrometry (LC–MS); settings: 2 µM
[12] = The drug is tested on WLS-038 corresponding to human gut metagenome with ENA study accession number: PRJEB37062 and ENA sample accession number: ERS12561745 for biotransformation under anaerobic condition. The drug concentrations were measured over 9 timepoints collected between 0 and 24 hours of incubation by liquid-chromatography-coupled mass spectrometry (LC–MS); settings: 2 µM
[13] = The drug is tested on WLS-240 corresponding to human gut metagenome with ENA study accession number: PRJEB37062 and ENA sample accession number: ERS12561773 for biotransformation under anaerobic condition. The drug concentrations were measured over 9 timepoints collected between 0 and 24 hours of incubation by liquid-chromatography-coupled mass spectrometry (LC–MS); settings: 2 µM
[14] = The drug is tested on Z-022 corresponding to mouse gut metagenome with ENA study accession number: PRJEB37062 and ENA sample accession number: ERS12561821 for biotransformation under anaerobic condition. The drug concentrations were measured over 9 timepoints collected between 0 and 24 hours of incubation by liquid-chromatography-coupled mass spectrometry (LC–MS); settings: 2 µM
[15] = human gut metagenome, 24 h, 2 µM; remark: listed apart in the source
[16] = The drug is tested on Z-024 corresponding to pig gut metagenome with ENA study accession number: PRJEB37062 and ENA sample accession number: ERS12561823 for biotransformation under anaerobic condition. The drug concentrations were measured over 9 timepoints collected between 0 and 24 hours of incubation by liquid-chromatography-coupled mass spectrometry (LC–MS); settings: 2 µM
[17] = human gut metagenome, 24 h, 2 µM; remark: listed apart in the source
[18] = human gut metagenome, 24 h, 2 µM; remark: listed apart in the source
[19] = The drug is tested on WLS-086 corresponding to human gut metagenome with ENA study accession number: PRJEB37062 and ENA sample accession number: ERS12561752 for biotransformation under anaerobic condition. The drug concentrations were measured over 9 timepoints collected between 0 and 24 hours of incubation by liquid-chromatography-coupled mass spectrometry (LC–MS); settings: 2 µM
[20] = The drug is tested on Z-025 corresponding to rabbit gut metagenome with ENA study accession number: PRJEB37062 and ENA sample accession number: ERS12561824 for biotransformation under anaerobic condition. The drug concentrations were measured over 9 timepoints collected between 0 and 24 hours of incubation by liquid-chromatography-coupled mass spectrometry (LC–MS); settings: 2 µM
Also: call rule not given here.

Row | SMILES | Bacterial Biotransformation [1] | Bacterial Biotransformation [2] | Bacterial Biotransformation [3] | Bacterial Biotransformation [4] | Bacterial Biotransformation [5] | Bacterial Biotransformation [6] | Bacterial Biotransformation [7] | Bacterial Biotransformation [8] | Bacterial Biotransformation [9] | Bacterial Biotransformation [10] | Bacterial Biotransformation [11] | Bacterial Biotransformation [12] | Bacterial Biotransformation [13] | Bacterial Biotransformation [14] | Bacterial Biotransformation [15] | Bacterial Biotransformation [16] | Bacterial Biotransformation [17] | Bacterial Biotransformation [18] | Bacterial Biotransformation [19] | Bacterial Biotransformation [20]
1 | CC(C)NCC(O)COc1ccc(COCCOC(C)C)cc1.CC(C)NCC(O)COc1ccc(COCCOC(C)C)cc1.O=C(O)/C=C/C(=O)O (stereo not given) [BISOPROLOL FUMARATE] | Compound metabolized | Compound NOT metabolized | Compound metabolized | Compound metabolized | Compound NOT metabolized | Compound NOT metabolized | Compound metabolized | Compound NOT metabolized | Compound metabolized | Compound NOT metabolized | Compound NOT metabolized | Compound NOT metabolized | Compound metabolized | Compound metabolized | Compound NOT metabolized | Compound metabolized | Compound metabolized | Compound NOT metabolized | Compound metabolized | Compound metabolized
2 | CN1C(=O)CCS(=O)(=O)C1c1ccc(Cl)cc1 (stereo not given) [CHLORMEZANONE] | Compound NOT metabolized | Compound NOT metabolized | Compound metabolized | Compound NOT metabolized | Compound NOT metabolized | Compound NOT metabolized | Compound NOT metabolized | Compound NOT metabolized | Compound NOT metabolized | Compound NOT metabolized | Compound NOT metabolized | Compound NOT metabolized | Compound metabolized | Compound NOT metabolized | Compound NOT metabolized | Compound NOT metabolized | Compound NOT metabolized | Compound NOT metabolized | Compound metabolized | Compound NOT metabolized

Results, then the molecule that gave them:

Row | Bacterial Biotransformation [1] | Bacterial Biotransformation [2] | Bacterial Biotransformation [3] | Bacterial Biotransformation [4] | Bacterial Biotransformation [5] | Bacterial Biotransformation [6] | Bacterial Biotransformation [7] | Bacterial Biotransformation [8] | Bacterial Biotransformation [9] | Bacterial Biotransformation [10] | Bacterial Biotransformation [11] | Bacterial Biotransformation [12] | Bacterial Biotransformation [13] | Bacterial Biotransformation [14] | Bacterial Biotransformation [15] | Bacterial Biotransformation [16] | Bacterial Biotransformation [17] | Bacterial Biotransformation [18] | Bacterial Biotransformation [19] | Bacterial Biotransformation [20] | SMILES
3 | Compound metabolized | Compound metabolized | Compound metabolized | Compound metabolized | Compound metabolized | Compound metabolized | Compound metabolized | Compound metabolized | Compound metabolized | Compound metabolized | Compound metabolized | Compound metabolized | Compound metabolized | Compound NOT metabolized | Compound metabolized | Compound metabolized | Compound metabolized | Compound metabolized | Compound metabolized | Compound metabolized | CCCCCOC(=O)Nc1nc(=O)n([C@@H]2O[C@H](C)[C@@H](O)[C@H]2O)cc1F [CAPECITABINE]
4 | Compound metabolized | Compound NOT metabolized | Compound metabolized | Compound NOT metabolized | Compound NOT metabolized | Compound NOT metabolized | Compound NOT metabolized | Compound metabolized | Compound metabolized | Compound metabolized | Compound metabolized | Compound metabolized | Compound metabolized | Compound NOT metabolized | Compound NOT metabolized | Compound NOT metabolized | Compound metabolized | Compound metabolized | Compound NOT metabolized | Compound NOT metabolized | Cc1ccc(-c2cc(C(F)(F)F)nn2-c2ccc(S(N)(=O)=O)cc2)cc1 [CELECOXIB]
5 | Compound metabolized | Compound NOT metabolized | Compound metabolized | Compound metabolized | Compound metabolized | Compound metabolized | Compound metabolized | Compound metabolized | Compound metabolized | Compound NOT metabolized | Compound metabolized | Compound metabolized | Compound metabolized | Compound NOT metabolized | Compound metabolized | Compound metabolized | Compound metabolized | Compound metabolized | Compound metabolized | Compound metabolized | Clc1ccc(Cn2c(CN3CCCC3)nc3ccccc32)cc1 [CLEMIZOLE]
